Laboratory results published in ChEMBL document CHEMBL1128769, “Structure-activity relationships of tricyclic quinoxalinediones as potent antagonists for the glycine binding site of the NMDA receptor 2” (Bioorg Med Chem Lett, 1995).

Columns and labels:
[1] = biological target: Glutamate receptor ionotropic, NMDA 1 (Rattus norvegicus, UniProt P35439); test: Affinity for the glycine binding site of the NMDA receptor using [3H]- 5,7- dichloro -kynurenic acid as radio-ligand
[2] = biological target: Glutamate receptor ionotropic, NMDA 1 (Rattus norvegicus) (UniProt P35439); test: Percent inhibition of binding affinity for the glycine binding site of the NMDA receptor using [3H]5,7- dichloro -kynurenic acid at a concentration of 10 ng/mL
[3] = biological target: Glutamate receptor ionotropic, NMDA 1 (Rattus norvegicus) (UniProt P35439); test: Percent inhibition of [3H]- 5,7- dichloro -kynurenic acid binding to glycine binding site of NMDA receptor at 10 ng/mL

SMILES | Ki [1] | inhibition [2] | inhibition [3]
C[C@H]1Cc2cc(Cl)cc3[nH]c(=O)c(=O)n(c23)C1CC(=O)Nc1ccccc1 (stereo not given in full) | 3.1 nM | – | –
O=C(CC1CCc2cccc3[nH]c(=O)c(=O)n1c23)Nc1ccccc1 (stereo not given) | – | 52.7% | –
N#Cc1ccc(NC(=O)CC2CCc3cc(Br)cc4[nH]c(=O)c(=O)n2c34)cc1 (stereo not given) | – | 3.8% | –
O=C(CC1CCc2cc(Br)cc3[nH]c(=O)c(=O)n1c23)Nc1ccc(C(F)(F)F)cc1 (stereo not given) | – | – | 1%
COc1ccc(NC(=O)CC2CCc3cc(Br)cc4[nH]c(=O)c(=O)n2c34)cc1 (stereo not given) | – | – | 67.5%
Nc1ccc(NC(=O)CC2CCc3cc(Br)cc4[nH]c(=O)c(=O)n2c34)cc1 (stereo not given) | – | – | 76.4%
O=C(CC1CCc2cc(Br)cc3[nH]c(=O)c(=O)n1c23)Nc1ccccc1 (stereo not given) | 2.6 nM | – | 92.9%
C[C@H]1Cc2cc(Cl)cc3[nH]c(=O)c(=O)n(c23)C1CC(=O)O (stereo not given in full) | 4.4 nM | – | –
O=C(O)CC1CCc2cc(I)cc3[nH]c(=O)c(=O)n1c23 (stereo not given) | 46.6 nM | – | 76.2%
O=C(CC1CCc2cc(I)cc3[nH]c(=O)c(=O)n1c23)Nc1ccccc1 (stereo not given) | 134 nM | – | 46.7%
Cc1ccc(NC(=O)CC2CCc3cc(Br)cc4[nH]c(=O)c(=O)n2c34)cc1 (stereo not given) | – | – | 83.3%
O=C(CC1CCc2cc(Cl)cc3[nH]c(=O)c(=O)n1c23)Nc1ccccc1 (stereo not given) | 6.6 nM | – | 79.3%
NC(=O)CC1CCc2cc(Br)cc3[nH]c(=O)c(=O)n1c23 (stereo not given) | – | – | 28.9%
O=C(CC1CCc2cc(Br)cc3[nH]c(=O)c(=O)n1c23)Nc1ccc([N+](=O)[O-])cc1 (stereo not given) | – | 21.5% | –
O=C(O)CC1CCc2cc(Cl)cc3[nH]c(=O)c(=O)n1c23 (stereo not given) | 5.1 nM | – | 90.3%
O=C(CC1CCc2cc(Br)cc3[nH]c(=O)c(=O)n1c23)NC1CCCCC1 (stereo not given) | – | – | 23.8%
O=C(O)CC1CCc2cc(Br)cc3[nH]c(=O)c(=O)n1c23 (stereo not given) | 9.9 nM | – | 68.7%
O=C(O)CC1CCc2cccc3[nH]c(=O)c(=O)n1c23 (stereo not given) | – | 30.3% | –
CC(=O)Nc1ccc(NC(=O)CC2CCc3cc(Br)cc4[nH]c(=O)c(=O)n2c34)cc1 (stereo not given) | – | – | 73%
